Measurements published in ChEMBL document CHEMBL1201862, “PubChem BioAssay data set” (2004).
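Method: 48-hour compound exposure of cells in 96-well plates, five concentrations, linear interpolation of endpoints. GI50 = concentration required for 50% inhibition of growth.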 The source made the active and inactive calls. Cut-off read from the data, not from the text of the source: active = GI50 up to about 1.1 µM and inactive = higher.

Assays:
Assay in all cases: NCI-60 cell line screen, 48 h
[1] = test system: UO-31
[2] = test system: RPMI-8226
[3] = test system: COLO 205
[4] = test system: A549
[5] = test system: OVCAR-8
[6] = test system: SK-OV-3
[7] = test system: HCT-15
[8] = test system: SW-620
[9] = test system: SK-MEL-5
[10] = test system: SK-MEL-2
[11] = test system: UACC-62
[12] = test system: U-251
[13] = test system: HL-60
[14] = test system: NCI-H522

CCOC(=O)c1ccc(N2C(=O)Cc3ccccc3C2=O)cc1
GI50 [1]: > 100 µM (inactive)
GI50 [2]: > 100 µM (inactive)
GI50 [3]: > 10 µM (inactive)
GI50 [4]: > 100 µM (inactive)
GI50 [5]: > 100 µM (inactive)
GI50 [6]: > 100 µM (inactive)
GI50 [7]: > 100 µM
GI50 [8]: > 100 µM (inactive)
GI50 [9]: > 100 µM (inactive)
GI50 [10]: > 100 µM (inactive)
GI50 [11]: > 100 µM (inactive)
GI50 [12]: > 100 µM (inactive)

COc1ccc2nc3cc(Cl)ccc3c(Sc3ccc(NC(C)=O)cc3)c2c1
GI50 [2]: 26.3 µM (inactive)
GI50 [3]: 14.8 µM (inactive)
GI50 [4]: > 53.2 µM (inactive)
GI50 [5]: 8.28 µM (inactive)
GI50 [6]: > 22.4 µM (inactive)
GI50 [13]: 19.4 µM (inactive)
GI50 [8]: 14.2 µM (inactive)
GI50 [9]: > 29.3 µM (inactive)
GI50 [10]: 12.3 µM (inactive)
GI50 [11]: 15.3 µM (inactive)
GI50 [14]: 2.79 µM (inactive)

COc1cc2c(oc(=O)c3cc4ccoc4c(OC)c32)c2cccc(O)c12
GI50 [1]: > 100 µM (inactive)
GI50 [2]: > 100 µM (inactive)
GI50 [3]: > 100 µM (inactive)
GI50 [4]: > 100 µM (inactive)
GI50 [5]: > 100 µM (inactive)
GI50 [6]: > 100 µM (inactive)
GI50 [7]: > 100 µM
GI50 [13]: > 100 µM (inactive)
GI50 [8]: > 100 µM (inactive)
GI50 [9]: > 100 µM (inactive)
GI50 [10]: > 100 µM (inactive)
GI50 [11]: > 100 µM (inactive)
GI50 [12]: > 100 µM (inactive)
GI50 [14]: > 100 µM (inactive)

CN(C)CCCNC(=O)c1cccc2ccccc12
GI50 [1]: > 10 µM (inactive)
GI50 [4]: > 100 µM (inactive)
GI50 [5]: > 100 µM (inactive)
GI50 [6]: > 100 µM (inactive)
GI50 [7]: > 100 µM
GI50 [13]: 12.7 µM (inactive)
GI50 [8]: > 100 µM (inactive)
GI50 [9]: > 100 µM (inactive)
GI50 [10]: > 100 µM (inactive)
GI50 [11]: > 100 µM (inactive)
GI50 [12]: > 100 µM (inactive)
GI50 [14]: > 100 µM (inactive)

CCC1CCc2c(c(=O)oc3c2cc(OC)c2cccc(OC)c23)C1 (stereo not drawn)
GI50 [1]: > 100 µM (inactive)
GI50 [2]: 49.5 µM (inactive)
GI50 [3]: > 100 µM (inactive)
GI50 [4]: 71 µM (inactive)
GI50 [5]: 50.1 µM (inactive)
GI50 [6]: > 100 µM (inactive)
GI50 [7]: > 100 µM
GI50 [13]: 17.5 µM (inactive)
GI50 [9]: 34.8 µM (inactive)
GI50 [10]: > 100 µM (inactive)
GI50 [11]: 48.5 µM (inactive)
GI50 [12]: 74.3 µM (inactive)
GI50 [14]: 36.6 µM (inactive)

CC(=O)OC1COC(N2C(=O)C(=O)c3cc(Br)ccc32)C(OC(C)=O)C1OC(C)=O (stereo not drawn)
GI50 [1]: > 100 µM (inactive)
GI50 [2]: > 100 µM (inactive)
GI50 [3]: > 100 µM (inactive)
GI50 [4]: > 100 µM (inactive)
GI50 [5]: > 100 µM (inactive)
GI50 [6]: > 100 µM (inactive)
GI50 [7]: > 100 µM
GI50 [8]: > 100 µM (inactive)
GI50 [9]: > 100 µM (inactive)
GI50 [10]: > 100 µM (inactive)
GI50 [11]: > 100 µM (inactive)
GI50 [12]: > 100 µM (inactive)
GI50 [14]: > 100 µM (inactive)

NC(CCC(=O)NC(CSSCCCCS(=O)O)C(=O)NCC(=O)O)C(=O)O (stereo not drawn)
GI50 [1]: > 100 µM (inactive)
GI50 [3]: > 100 µM (inactive)
GI50 [4]: > 100 µM (inactive)
GI50 [5]: > 100 µM (inactive)
GI50 [6]: > 100 µM (inactive)
GI50 [7]: > 100 µM
GI50 [8]: > 100 µM (inactive)
GI50 [9]: > 100 µM (inactive)
GI50 [10]: > 100 µM (inactive)
GI50 [11]: > 100 µM (inactive)
GI50 [12]: > 100 µM (inactive)
GI50 [14]: > 100 µM (inactive)

COc1ccc(C2C(Cl)C(=O)N2NC(=O)c2ccccc2O)cc1OC (stereo not drawn)
GI50 [1]: 53.2 µM (inactive)
GI50 [4]: > 100 µM (inactive)
GI50 [5]: 93.1 µM (inactive)
GI50 [6]: 90.2 µM (inactive)
GI50 [7]: 68.9 µM
GI50 [13]: 41 µM (inactive)
GI50 [9]: 60 µM (inactive)
GI50 [10]: 92 µM (inactive)
GI50 [11]: > 100 µM (inactive)
GI50 [12]: 92.3 µM (inactive)
GI50 [14]: 32.2 µM (inactive)

CCCCCCCCC/C=C1\CCC(CN(C)C)C1=O (stereo not drawn)
GI50 [1]: 2.02 µM (inactive)
GI50 [2]: 0.0619 µM (active)
GI50 [3]: 2.29 µM (inactive)
GI50 [4]: 4.39 µM (inactive)
GI50 [5]: 1.69 µM (inactive)
GI50 [6]: 17.2 µM (inactive)
GI50 [7]: 2.22 µM
GI50 [13]: 1.94 µM (inactive)
GI50 [8]: 1.58 µM (inactive)
GI50 [9]: 2.05 µM (inactive)
GI50 [10]: 2.72 µM (inactive)
GI50 [11]: 2.48 µM (inactive)
GI50 [12]: 1.66 µM (inactive)
GI50 [14]: 1.95 µM (inactive)

COc1cc2c3c(c1OC)C1(C=CC(=O)C=C1)CC3N(C(=O)OC(C)(C)C(Cl)(Cl)Cl)CC2 (stereo not drawn)
GI50 [1]: 14.5 µM (inactive)
GI50 [2]: 2.23 µM (inactive)
GI50 [3]: 12.4 µM (inactive)
GI50 [4]: 10.5 µM (inactive)
GI50 [5]: 8.85 µM (inactive)
GI50 [6]: 26.2 µM (inactive)
GI50 [7]: 7.52 µM
GI50 [13]: 1.95 µM (inactive)
GI50 [8]: 18.3 µM (inactive)
GI50 [9]: 6.87 µM (inactive)
GI50 [10]: 11 µM (inactive)
GI50 [11]: 13.1 µM (inactive)
GI50 [12]: 10.5 µM (inactive)
GI50 [14]: 8.93 µM (inactive)

CN1C(=O)CNS1(=O)=O
GI50 [1]: > 100 µM (inactive)
GI50 [2]: > 100 µM (inactive)
GI50 [4]: > 100 µM (inactive)
GI50 [5]: > 100 µM (inactive)
GI50 [6]: > 100 µM (inactive)
GI50 [7]: > 100 µM
GI50 [13]: > 100 µM (inactive)
GI50 [8]: > 100 µM (inactive)
GI50 [9]: > 100 µM (inactive)
GI50 [10]: > 100 µM (inactive)
GI50 [11]: > 100 µM (inactive)
GI50 [12]: > 100 µM (inactive)
